Here are results for 30 molecules from US20230250096A1, “SUBSTITUTED PHENYL-1H-PYRROLO[2,3-c] PYRIDINE DERIVATIVES” (Janssen Pharmaceutica NV, priority 2021, published 2023).

Experiment [1] concerns the target T1, menin/MLL (terbium chelate-labeled menin, FITC-MBM1 peptide) (Homo sapiens, UniProt O00255, T541A).
T1 construct: Menin (a.a 1-610-6xhis tag, 2.3 mg/mL in 20 mM Hepes)
T1 sequence (O00255 with tags, fused parts or gaps T541A): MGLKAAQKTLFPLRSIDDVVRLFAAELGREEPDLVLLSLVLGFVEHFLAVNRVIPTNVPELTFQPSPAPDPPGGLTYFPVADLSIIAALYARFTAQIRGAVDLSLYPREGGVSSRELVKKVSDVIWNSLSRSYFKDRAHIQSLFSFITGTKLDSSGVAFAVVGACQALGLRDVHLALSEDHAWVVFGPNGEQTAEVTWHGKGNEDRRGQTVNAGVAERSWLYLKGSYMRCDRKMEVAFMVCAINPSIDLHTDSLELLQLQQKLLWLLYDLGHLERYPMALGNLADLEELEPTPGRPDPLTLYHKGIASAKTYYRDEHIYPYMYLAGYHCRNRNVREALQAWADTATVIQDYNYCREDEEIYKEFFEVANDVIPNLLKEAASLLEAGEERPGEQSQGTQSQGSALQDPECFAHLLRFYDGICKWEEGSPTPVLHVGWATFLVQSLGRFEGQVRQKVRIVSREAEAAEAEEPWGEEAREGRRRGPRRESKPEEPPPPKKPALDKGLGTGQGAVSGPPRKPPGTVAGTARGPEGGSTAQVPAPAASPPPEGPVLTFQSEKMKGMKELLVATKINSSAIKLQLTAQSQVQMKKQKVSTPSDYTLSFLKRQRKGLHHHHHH
Put plainly: Menin/MLL homogenous time-resolved fluorescence (HTRF) assay. The class given is binding. The conditions noted are these: 30 min incubation. The protocol: 1) Menin/MLL Homogenous Time-Resolved Fluorescence (HTRF) Assay
To an untreated, white 384-well microtiter plate was added 40 nL 200× test compound in DMSO and 4 μL 2× terbium chelate-labeled menin (vide infra for preparation) in assay buffer (40 mM Tris HCl, pH 7.5, 50 mM NaCl. 1 mM DTT (dithiothreitol) and 0.05% Pluronic F-127). After incubation of test compound and terbium chelate-labeled menin for 30 min at ambient temperature, 4 μL 2×FITC-MBM1 peptide (FITC-β-alanine-[…]-NH2) (“FITC” means fluorescein isothiocyanate) in assay buffer was added, the microtiter plate centrifuged at 1000 rpm for 1 min and the assay mixtures incubated for 15 min at ambient temperature. The relative amount of menin FITC-MBM1 complex present in an assay mixture is determined by measuring the homogenous time-resolved fluorescence (HTRF) of the terbium/FITC donor/acceptor fluorphore pair using an EnVision microplate reader (ex. 337 nm/terbium em. 490 nm/FITC em. 520 nm) at ambient temperature. The degree of fluorescence resonance energy transfer (the HTRF value) is expressed as the ratio of the fluorescence emission intensities of the FITC and terbium fluorophores (F^em520 nm/F^em490 nm). The final concentrations of reagents in the binding assay are […] terbium chelate-labeled menin, 75 nM FITC-MBM1 peptide and 0.5% DMSO in assay buffer. Dose-response titrations of test compounds are conducted using an 11 point, four-fold serial dilution scheme, starting typically at 10 μM.
Compound potencies were determined by first calculating % inhibition at each compound concentration according to equation 1:
% inhibition=((HC−LC)−(HTRF^compound−LC))/(HC−LC))*100 (Eqn 1)
Where LC and HC are the HTRF values of the assay in the presence or absence of a saturating concentration of a compound that competes with FITC-MBM1 for binding to menin, and HTRF^compound is the measured HTRF value in the presence of the test compound. HC and LC HTRF values represent an average of at least 10 replicates per plate.
% inhibition=Bottom+(Top−Bottom)/(1+10^((log/C50−log[cmpd])*h)) (Eqn 2)
Where Bottom and Top are the lower and upper asymptotes of the dose-response curve, respectively, IC50 is the concentration of compound that yields 50% inhibition of signal and h is the Hill coefficient.
Preparation of Terbium cryptate labeling of Menin: Menin (a.a 1-610-6xhis tag, 2.3 mg/mL in 20 mM Hepes (2-[4-(2-Hydroxyethyl)-1-piperazinyl]ethane sulfonic acid), 80 mM NaCl, 5 mM DTT (Dithiothreitol), pH 7.5) was labeled with terbium cryptate as follows. 200 μg of Menin was buffer exchanged into 1×Hepes buffer. 6.67 μM Menin was incubated with 8-fold molar excess NHS (N-hydroxysuccinimide)-terbium cryptate for 40 minutes at room temperature. Half of the labeled protein was purified away from free label by running the reaction over a NAP5 column with elution buffer (0.1M Hepes, pH 7+0.1% BSA (bovine serum albumin)). The other half was eluted with 0.1 M phosphate buffered saline (PBS), pH7. 400 μl of eluent was collected for each, aliquoted and frozen at −80° C. The final concentration of terbium-labeled Menin protein was 115 μg/mL in Hepes buffer and 85 μg/mL in PBS buffer, respectively.
A general note: Time-resolved FRET reads energy transfer from a long-lived donor to a nearby acceptor.

A further experiment concerns MEIS1 mRNA expression. As to the kind of experiment: MEIS1 mRNA expression assay (Quantigene Singleplex) in MOLM14 cells. The following applies: Homo sapiens, MOLM-14, 48 h, 48 hours incubation. The class given is cell-based, human. How it is done: 2b) MEIS1 mRNA Expression Assay
MEIS1 mRNA expression upon treatment of compound was examined by Quantigene Singleplex assay (Thermo Fisher Scientific). This technology allows for direct quantification of mRNA targets using probes hybridizing to defined target sequences of interest and the signal is detected using a Multimode plate reader Envision (PerkinElmer). The MOLM14 cell line was used for this experiment. Cells were plated in 96-well plates at 3,750 cells/well in the presence of increasing concentrations of compounds. After incubation of 48 hours with compounds, cells were lysed in lysis buffer and incubated for 45 minutes at 55° C. Cell lysates were mixed with human MEIS specific capture probe or human RPL28 (Ribosomal Protein L28) specific probe as a normalization control, as well as blocking probes. Cell lysates were then transferred to the custom assay hybridization plate (Thermo Fisher Scientific) and incubated for 18 to 22 hours at 55° C. Subsequently, plates were washed to remove unbound materials followed by sequential addition of preamplifiers, amplifiers, and label probe. Signals (═gene counts) were measured with a Multimode plate reader Envision. IC50S were calculated by dose-response modelling using appropriate software. For all non-housekeeper genes response equal counts corrected for background and relative expression. For each sample, each test gene signal (background subtracted) was divided by the normalization gene signal (RPL28: background subtracted). Fold changes were calculated by dividing the normalized values for the treated samples by the normalized values for the DMSO treated sample. Fold changes of each target gene were used for the calculation of IC50S.

Bounds are passed on as bounds.

The term IC50 denotes the concentration that gives 50% inhibition. Low values mean greater potency, high ones weaker potency. `Cc1cncc2c1c(CC1CN([C@@H](C)C3CCS(=O)(=O)CC3)C1)cn2-c1ccc(F)cc1C(=O)N(C)C(C)C` (single isomer, unassigned) [Compound 213b]: the IC50 in experiment [1] is 1.63 nM; in the experiment on MEIS1 mRNA expression it was around 2300 nM.
As to `COCCNCCCC(C(C)C)N1CC[C@H](Cc2cn(-c3ccc(F)cc3C(=O)N(C)C(C)C)c3cncc(C)c23)C1` (mixture of isomers) [Compound 15], the IC50 is 0.04 nM in experiment [1] and below 0.8 nM in the experiment on MEIS1 mRNA expression.
As for `Cc1cncc2c1c(C[C@@H]1CN[C@H](C)C1)cn2-c1ccc(F)cc1C(=O)N(C)C(C)C` [Compound 504], the values for the IC50 (in experiment [1]; with MEIS1 mRNA expression) were 23.9 nM and above 1000 nM, respectively.
The matching figures for `Cc1cncc2c1c(CC1CN(CC3CCOCC3)C1)cn2-c1ccc(F)cc1C(=O)N(C)[C@H]1C[C@H](O)C1` [Compound 275]: 0.945 nM and above 1000 nM.
With `CC(=O)N1CCC(CN2CC[C@@H](Cc3cn(-c4ccc(F)cc4[S@]4(=O)=NCCC4)c4cncc(C)c34)C2)CC1` (single isomer, unassigned) [Compound 214b], the IC50 in experiment [1] was 11.7 nM; with MEIS1 mRNA expression it was around 7280 nM.
The matching figures for `CCC([C@H]1C[C@@H](N2C[C@H]3CN(C(C)=O)C[C@@H]3C2)C1)N1CC[C@@H](Cc2cn(-c3ccc(F)cc3C(=O)N(C)C(C)C)c3cncc(Cl)c23)C1` (stereo partly shown) [Compound 26a]: 0.036 nM and 7 nM.
The corresponding values for `Cc1cncc2c1c(C[C@H]1CCN(CC3CCN(C(=O)C4(O)CC4)CC3)C1)cn2-c1ccc(F)cc1C(=O)N(C)C(C)C` [Compound 245] are 0.185 nM and 65 nM.
In the case of `CC(=O)N1CCN(CCC[C@@H](C(C)C)N2CC[C@@H](Cc3cn(-c4ccc(F)cc4C(=O)N(C)C(C)C)c4cncc(C)c34)C2)CC1` (single isomer, unassigned) [Compound 8b], the figures for the IC50 (in experiment [1]; in the experiment with MEIS1 mRNA expression) were around 7.3 nM and 44 nM, respectively.
The matching figures for `Cc1cncc2c1c(CC1CCN(CC3CCOCC3)CC1)cn2-c1ccc(F)cc1C(=O)N(C)C(C)C` [Compound 109]: 0.304 nM and 53 nM.
For `CC(=O)N1CC2C(CN3CC(Cc4cn(-c5ccc(F)cc5C(=O)N(C)C(C)C)c5cncc(C)c45)C3)C2C1` (stereo not shown) [Compound 305], the IC50 in experiment [1] is 0.146 nM; with MEIS1 mRNA expression, around 297 nM.
The matching figures for `CC[C@@H]([C@H]1C[C@H](N2C[C@H]3CN(C(C)=O)C[C@@H]3C2)C1)N1CC[C@H](Cc2cn(-c3ccc(F)cc3C(=O)N(C)C(C)C)c3cncc(Cl)c23)C1` (single isomer, unassigned) [Compound 27d]: 0.013 nM and 80 nM.
In the case of `COCCNCCCC(C(C)C)N1CC[C@@H](Cc2cn(-c3ccc(F)cc3C(=O)N(C)C(C)C)c3cncc(C)c23)C1` (mixture of isomers) [Compound 14], the IC50 in experiment [1] was 0.054 nM; with MEIS1 mRNA expression it was below 3.6 nM.
The corresponding values for `Cc1cncc2c1c(C[C@H]1CCN(CC3(C)CCN(C(N)=O)CC3)C1)cn2-c1ccc(F)cc1C(=O)N(C)C(C)C` [Compound 218] are 0.094 nM and 48 nM.
On to `COC(=O)c1cc(F)ccc1-n1cc(C[C@@H]2CCN(CC3CCOCC3)C2)c2c(C)cncc21` [Compound 534], for which it took 0.556 nM to reach half-maximal inhibition in experiment [1] (IC50).
For the molecule `Cc1cncc2c1c(C[C@@H]1CCN(CC3CCOCC3)C1)cn2-c1ccc(F)cc1C(=O)N1CCC[C@@H]1CO` [Compound 361], 0.149 nM corresponded to half-maximal inhibition in experiment [1] (IC50).
Molecule `CC(=O)N1CCC(CN2CC[C@@H](Cc3cn(-c4ccc(F)cc4S4(=O)=NCCC4)c4cncc(C)c34)C2)CC1` (mixture of isomers) [Compound 214] showed a half-inhibitory concentration (IC50) in the experiment with MEIS1 mRNA expression above 1000 nM.
`CC(=O)N1CCC(N2CC[C@H](Cc3cn(-c4ccc(F)cc4C(=O)N(C)C(C)C)c4cncc(C)c34)C2)CC1` [Compound 156] yielded an IC50 in experiment [1] of 0.042 nM.
`CC(=O)N1CCC(N2CC(Cc3cn(-c4ccc(F)cc4C(=O)N(C)C(C)C)c4cncc(C)c34)C2)C[C@H]1C` (single isomer, unassigned) [Compound 292a] had an IC50 in experiment [1] of 0.132 nM.
Molecule `Cc1cncc2c1c(CC1CCNC1C)cn2-c1ccc(F)cc1C(=O)N(C)C(C)C` (stereo not shown) [Compound 508] came in with an IC50 in experiment [1] of 3.68 nM.
Turning to `Cc1cncc2c1c(CC1CCNC1C)cn2-c1ccc(F)cc1C(=O)N(C)C(C)C` (stereo not shown) [Compound 507], in experiment [1], 6.6 nM corresponded to half-maximal inhibition (IC50).
With `CC(=O)N1CC2CC(N3CC(Cc4cn(-c5ccc(F)cc5C(=O)N(C)C(C)C)c5cncc(C)c45)C3)CC2C1` (stereo not shown) [Compound 294b], in experiment [1], the IC50 turned out to be 0.077 nM.
As to `Cc1cncc2c1c(C[C@H]1CN[C@@H](C)C1)cn2-c1ccc(F)cc1C(=O)N(C)C(C)C` [Compound 505], in experiment [1], inhibition was half-maximal at 3.11 nM (IC50).
As to `COC(=O)c1cc(F)ccc1-n1cc(C[C@@H]2CCN(CC3CCN(C(C)=O)CC3)C2)c2c(C)cncc21` [Compound 528], in experiment [1], the IC50 is 0.514 nM.
`Cc1cncc2c1c(CC1CN([C@@H]3CCN4C(=O)CCC4C3)C1)cn2-c1ccc(F)cc1C(=O)N(C)C(C)C` (single isomer, unassigned) [Compound 309a]: the IC50 in experiment [1] stood at 1.3 nM.
In the case of `COC(=O)c1cc(F)ccc1-n1cc(C[C@@H]2CCN(CC3CCNC(=O)CC3)C2)c2c(C)cncc21` (stereo partly shown) [Compound 533], the IC50 in experiment [1] was determined as 0.808 nM.
On the same count and under the same terms, with `Cc1cncc2c1c(C[C@H]1CN[C@H](C)C1)cn2-c1ccc(F)cc1C(=O)N(C)C(C)C` [Compound 503] the figure was 10.5 nM.
In experiment [1], `CNC(=O)c1cncc(N2CCC(N3CC(Cc4cn(-c5ccc(OC)cc5C(=O)N(C)C(C)C)c5cncc(C)c45)C3)CC2)n1` [Compound 76] returned an IC50 of 0.304 nM.
As to `Cc1cncc2c1c(CC1CCNC1C)cn2-c1ccc(F)cc1C(=O)N(C)C(C)C` (stereo not shown) [Compound 510], the midpoint of inhibition in experiment [1], the IC50, lay at 2.95 nM.
In experiment [1], `Cc1cncc2c1c(C[C@@H]1CN[C@@H](C)C1)cn2-c1ccc(F)cc1C(=O)N(C)C(C)C` [Compound 522] returned an IC50 of 10.6 nM.
Molecule `Cc1cncc2c1c(CC1CCNC1C)cn2-c1ccc(F)cc1C(=O)N(C)C(C)C` (stereo not shown) [Compound 509] registered an IC50 in experiment [1] of 4.53 nM.
